The melting point is the temperature, or range, at which the solid turns liquid.

The compound `NC(=O)C1CCN(Cc2cnc3cc(NC(=O)c4ccc(-c5ccc(Cl)cc5)cc4)ccc3c2)CC1` [Example 90, 1-[(7-{[(4′-chloro-1,1′-biphenyl-4-yl)carbonyl]amino}-3-quinolinyl)methyl]piperidine-4-carboxamide] yielded a melting point of 260 °C.

In the case of `CCNC(=O)CC1CCN(Cc2cnc3cc(NC(=O)c4ccc(-c5ccc(Cl)cc5)cc4)ccc3c2)CC1` [Example 91, 4′-chloro-N-[3-({4-[2-(ethylamino)-2-oxoethyl]-1-piperidinyl}methyl)-7-quinolinyl][1,1′-biphenyl]-4-carboxamide], the melting point amounted to 250 °C.

Turning to `CC(=O)NC1CCN(Cc2cnc3cc(NC(=O)c4ccc(-c5ccc(Cl)cc5)cc4)ccc3c2)C1` (stereo not shown) [Example 92, N-(3-{[3-(acetylamino)-1-pyrrolidinyl]methyl}-7-quinolinyl)-4′-chloro-[1,1′-biphenyl]-4-carboxamide], the melting point was > 285 °C.

Regarding `Cc1ccc(-c2ccc(C(=O)Nc3ccc4cc(CN5CCCC5)cnc4c3C)cn2)cc1` [Example 94, 6-(4-methylphenyl)-N-[8-methyl-3-(1-pyrrolidinylmethyl)-7-quinolinyl]nicotinamide], the melting point fell in the range of 178 to 180 °C.

As to `Cc1c(NC(=O)c2ccc(-c3ccc(Cl)cc3)nc2)ccc2cc(CN3CCCC3)cnc12` [Example 95, 6-(4-chlorophenyl)-N-[8-methyl-3-(1-pyrrolidinylmethyl)-7-quinolinyl]nicotinamide], the melting point lay in the range of 234 to 236 °C.

`COc1ccc(-c2ccc(C(=O)Nc3ccc4cc(CN5CCCC5)cnc4c3C)cn2)cc1` [Example 96, 6-(4-methoxyphenyl)-N-[8-methyl-3-(1-pyrrolidinylmethyl)-7-quinolinyl]nicotinamide] displayed a melting point of 180 to 182 °C.

Compound `Cc1c(NC(=O)c2ccc(-c3ccc(F)cc3)nc2)ccc2cc(CN3CCCC3)cnc12` [Example 97, 6-(4-fluorophenyl)-N-[8-methyl-3-(1-pyrrolidinylmethyl)-7-quinolinyl]nicotinamide] displayed a melting point of 207 to 209 °C.

As to `Cc1c(NC(=O)N2CCC(c3ccc(Cl)cc3)CC2)ccc2cc(CN3CCCC3)cnc12` [Example 98, 4-(4-chlorophenyl)-N-[8-methyl-3-(1-pyrrolidinylmethyl)-7-quinolinyl]-1-piperidine carboxamide], the melting point fell in the range of 203 to 205 °C.

Consider `Cc1c(NC(=O)c2ccc(-c3ccccc3F)cc2)ccc2cc(CN3CCCC3)cnc12` [Example 99, 2′-fluoro-N-[8-methyl-3-(1-pyrrolidinylmethyl)-7-quinolinyl][1,1′-biphenyl]-4-carboxamide], for which the melting point fell in the range of 133 to 135 °C.

With `Cc1c(NC(=O)c2ccc(-c3ccc(F)cc3F)cc2)ccc2cc(CN3CCCC3)cnc12` [Example 100, 2′,4′-difluoro-N-[8-methyl-3-(1-pyrrolidinylmethyl)-7-quinolinyl][1,1′-biphenyl]-4-carboxamide], the melting point was 177 to 179 °C.

`Cc1c(NC(=O)c2ccc(-c3ccc(C(F)(F)F)cc3)cc2)ccc2cc(CN3CCCC3)cnc12` [Example 101, N-[8-methyl-3-(1-pyrrolidinylmethyl)-7-quinolinyl]-4′-(trifluoromethyl)[1,1′-biphenyl]-4-carboxamide] registered a melting point of 220 to 222 °C.

With `Cc1c(NC(=O)c2ccc(-c3ccc(F)c(F)c3)cc2)ccc2cc(CN3CCCC3)cnc12` [Example 102, 3′,4′-difluoro-N-[8-methyl-3-(1-pyrrolidinylmethyl)-7-quinolinyl][1,1′-biphenyl]-4-carboxamide], the melting point was 199 to 201 °C.

`Cc1c(NC(=O)c2ccc(-c3ccc(OC(F)(F)F)cc3)cc2)ccc2cc(CN3CCCC3)cnc12` [Example 103, N-[8-methyl-3-(1-pyrrolidinylmethyl)-7-quinolinyl]-4′-(trifluoromethoxy)[1,1′-biphenyl]-4-carboxamide] displayed a melting point of 200 to 202 °C.

`Cc1c(NC(=O)c2ccc(-c3ccc(Cl)s3)cc2)ccc2cc(CN3CCCC3)cnc12` [Example 107, 4-(5-chloro-2-thienyl)-N-[8-methyl-3-(1-pyrrolidinylmethyl)-7-quinolinyl]benzamide] came in with a melting point of 210 to 211 °C.

Compound `Cc1cccc(-c2ccc(C(=O)Nc3ccc4cc(CN5CCCC5)cnc4c3C)cc2)c1` [Example 109, 3′-methyl-N-[8-methyl-3-(1-pyrrolidinylmethyl)-7-quinolinyl][1,1′-biphenyl]-4-carboxamide] yielded a melting point of 151 to 152 °C.

In turn, `Cc1ccccc1-c1ccc(C(=O)Nc2ccc3cc(CN4CCCC4)cnc3c2C)cc1` [Example 111, 2′-methyl-N-[8-methyl-3-(1-pyrrolidinylmethyl)-7-quinolinyl][1,1′-biphenyl]-4-carboxamide] yielded a melting point of 150 to 151 °C.

Compound `Cc1c(NC(=O)c2ccc(-c3cccc(F)c3)cc2)ccc2cc(CN3CCCC3)cnc12` [Example 112, 3′-fluoro-N-[8-methyl-3-(1-pyrrolidinylmethyl)-7-quinolinyl][1,1′-biphenyl]-4-carboxamide] had a melting point of 158 to 159 °C.

Compound `Cc1c(NC(=O)c2ccc(-c3ccc4c(c3)CCO4)cc2)ccc2cc(CN3CCCC3)cnc12` [Example 113, 4-(2,3-dihydro-1-benzofuran-5-yl)-N-[8-methyl-3-(1-pyrrolidinylmethyl)-7-quinolinyl]benzamide] had a melting point of 176 to 177 °C.

As to `Cc1c(NC(=O)c2ccc(-c3ccc4c(c3)CCCO4)cc2)ccc2cc(CN3CCCC3)cnc12` [Example 114, 4-(3,4-dihydro-2H-chromen-6-yl)-N-[8-methyl-3-(1-pyrrolidinylmethyl)-7-quinolinyl]benzamide], the melting point lay in the range of 195 to 197 °C.

On to `Cc1c(NC(=O)c2ccc(-c3ccc4c(c3)CCCCO4)cc2)ccc2cc(CN3CCCC3)cnc12` [Example 116, N-[8-methyl-3-(1-pyrrolidinylmethyl)-7-quinolinyl]-4-(2,3,4,5-tetrahydro-1-benzoxepin-7-yl)benzamide], for which the melting point was in the range of 162 to 163 °C.

In the case of `Cc1c(NC(=O)c2ccc(C3CCCCC3)cc2)ccc2cc(CN3CCCC3)cnc12` [Example 122, 4-cyclohexyl-N-[8-methyl-3-(1-pyrrolidinylmethyl)-7-quinolinyl]benzamide], the melting point lay within 178 to 179 °C.

Compound `COc1ccc(COc2ccc(C(=O)Nc3ccc4cc(CN5CCCC5)cnc4c3C)cc2)cc1` [Example 126, 4-[(4-methoxybenzyl)oxy]-N-[8-methyl-3-(1-pyrrolidinylmethyl)-7-quinolinyl]benzamide] displayed a melting point of 192 to 193 °C.

As to `Cc1ccc(-c2ccc(C(=O)Nc3ccc4cc(CN5CCCC5)cnc4c3C)c(F)c2)cc1` [Example 135, 3-fluoro-4′-methyl-N-[8-methyl-3-(1-pyrrolidinylmethyl)-7-quinolinyl][1,1′-biphenyl]-4-carboxamide], the melting point lay within 180 to 182 °C.

As for `Cc1c(NC(=O)c2ccc(-c3ccc(OC(F)(F)F)cc3)cc2F)ccc2cc(CN3CCCC3)cnc12` [Example 136, 3-fluoro-N-[8-methyl-3-(1-pyrrolidinylmethyl)-7-quinolinyl]-4′-(trifluoromethoxy)[1,1′-biphenyl]-4-carboxamide], the melting point was in the range of 175 to 178 °C.

`Cc1c(NC(=O)c2ccc(-c3ccc(F)cc3F)cc2F)ccc2cc(CN3CCCC3)cnc12` [Example 139, 2′,3,4′-trifluoro-N-[8-methyl-3-(1-pyrrolidinylmethyl)-7-quinolinyl][1,1′-biphenyl]-4-carboxamide] gave a melting point of 172 to 173 °C.

In the case of `CCc1ccc(-c2ccc(C(=O)Nc3ccc4cc(CN5CCCC5)cnc4c3C)c(F)c2)cc1` [Example 140, 4′-ethyl-3-fluoro-N-[8-methyl-3-(1-pyrrolidinylmethyl)-7-quinolinyl][1,1′-biphenyl]-4-carboxamide], the melting point lay within 178 to 179 °C.

`Cc1c(NC(=O)c2ccc(-c3cc4ccccc4o3)cc2F)ccc2cc(CN3CCCC3)cnc12` [Example 142, 4-(1-benzofuran-2-yl)-2-fluoro-N-[8-methyl-3-(1-pyrrolidinylmethyl)-7-quinolinyl]benzamide] showed a melting point of 202 to 203 °C.

As to `CSc1ccc(-c2ccc(C(=O)Nc3ccc4cc(CN5CCCC5)cnc4c3C)c(F)c2)cc1` [Example 144, 3-fluoro-N-[8-methyl-3-(1-pyrrolidinylmethyl)-7-quinolinyl]-4′-(methylsulfanyl)[1,1′-biphenyl]-4-carboxamide], the melting point lay within 189 to 190 °C.

For the compound `Cc1c(NC(=O)c2ccc(-c3ccc(F)cc3)cc2F)ccc2cc(CN3CCCC3)cnc12` [Example 145, 3,4′-difluoro-N-[8-methyl-3-(1-pyrrolidinylmethyl)-7-quinolinyl][1,1′-biphenyl]-4-carboxamide], the melting point lay in the range of 176 to 178 °C.

`Cc1c(NC(=O)c2ccc(-c3ccc(Cl)cc3)cc2F)ccc2cc(CN3CCCC3)cnc12` [Example 146, 4′-chloro-3-fluoro-N-[8-methyl-3-(1-pyrrolidinylmethyl)-7-quinolinyl][1,1′-biphenyl]-4-carboxamide] gave a melting point of 181 to 183 °C.

Compound `COc1ccc(-c2ccc(C(=O)Nc3ccc4cc(CN5CCCC5)cnc4c3C)c(F)c2)cc1` [Example 147, 3-fluoro-4′-methoxy-N-[8-methyl-3-(1-pyrrolidinylmethyl)-7-quinolinyl][1,1′-biphenyl]-4-carboxamide] yielded a melting point of 164 to 166 °C.

As to `Cc1c(NC(=O)c2ccc(-c3ccccc3F)cc2F)ccc2cc(CN3CCCC3)cnc12` [Example 148, 2′,3-difluoro-N-[8-methyl-3-(1-pyrrolidinylmethyl)-7-quinolinyl][1,1′-biphenyl]-4-carboxamide], the melting point lay in the range of 159 to 160 °C.

`Cc1c(NC(=O)c2ccc(-c3ccccc3)cc2F)ccc2cc(CN3CCCC3)cnc12` [Example 149, 3-fluoro-N-[8-methyl-3-(1-pyrrolidinylmethyl)-7-quinolinyl][1,1′-biphenyl]-4-carboxamide] came in with a melting point of 166 to 168 °C.

`Cc1c(NC(=O)c2ccc(-c3ccccc3)c(F)c2)ccc2cc(CN3CCCC3)cnc12` [Example 151, 2-fluoro-N-[8-methyl-3-(1-pyrrolidinylmethyl)-7-quinolinyl][1,1′-biphenyl]-4-carboxamide]: the melting point was 156 to 158 °C.
